Paper PMC8767159, “Multiparameter Optimization of Trypanocidal Cruzain Inhibitors With In Vivo Activity and Favorable Pharmacokinetics” (Frontiers in Pharmacology, 2022)
Like-named read-outs stand apart in the source and are kept apart here.

Columns and labels:
[1] = In vivo pharmacokinetics in male CD1 mice; design: species or system mouse; conditions: for bioavailability / C0 / AUC / half-life / Vd / Tmax / Cmax: plasma; for bioavailability: oral bioavailability; for clearance: plasma clearance, read-out: CLp (L/h/kg) IV (converted)
Method: The in vivo pharmacokinetic profiles of the compounds were determined using male CD1 mice weighing […] ([Davies and Morris, 1993]; [Liu and Jia, 2007]). The compounds were administered in a single dose orally (0.5 mg/kg) and intravenously (0.5 mg/kg). Stock solutions of the compounds in DMSO were diluted in Tween 80, PEG-400, and D5W (5% dextrose in water) at a ratio of 2:5:20:73 (v/v). The injection volume was 10 ml/kg. The remaining plasma concentration was monitored over time by LC-MS/MS by collecting blood samples (40 μl) at 10, 25, and 50 min and 1, 3, 6, 9, 12, and 24 h after administration of the compound.
For the biotransformation experiments and analysis of metabolites in microsomes, an Ultra-High-Pressure Liquid Chromatography instrument (UHPLC, Thermo Accela, Waltham, MA) ([Spaggiari et al., 2014]) connected to an automatic sample injector and a 1250 series pump was used. The UHPLC system was connected to a Thermo Fisher (Waltham, MA) LTQ Orbitrap mass spectrometer. For all other analyses, an AB Sciex Triple Quad 5500 coupled to a UHPLC equipped with a UV 1290 diode detector (Agilent Technologies, Santa Clara, CA) and a CTC PAL self-collecting system (LEAP Technologies, Carrboro, NC) was used. Q1 MS positive ion mode (300–500 Da) was used to detect the ions of the parent compounds. The UV detector was operated in spectral mode (250–280 nm). A Hypersil Gold C18 (2.1 mm × 100 mm, 1.9 µm, Thermo Fisher) HPLC column was used. The mobile phases were solvent A (0.1% formic acid in water) and solvent B (0.1% formic acid in ACN). The flow was adjusted to 0.55 ml/min, and the injection volume was adjusted to […]. The gradient started with 1% solvent B for 0.4 min, reached 40% (solvent B) in 2.3 min and 95% (solvent B) in 0.67 min, was maintained for 0.5 min, and returned to the initial condition of 1%. This condition was maintained for 1 min before injection of the next sample. The peak area ratio (peak area of the test compounds/peak area of the control compounds) was converted to the percentage of remaining compound, with the 0 min time point ratio set to 100%. T½ and CLint were calculated from the percentage of remaining compound versus the incubation time. From the resulting function, the slope (k) was determined. The equations T1/2 (min) = ln(2)/k and CLint in vitro (μL/min/mg) = k*1000/0.25 were used to determine T½ and CLint.

[2] = In vitro metabolic stability in mouse liver microsomes; type: in vitro ADME; conditions: mouse, liver microsomes
In short: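 Compounds incubated at 37°C with mouse or human liver microsomes (0.25 mg/ml) in potassium phosphate buffer with NADPH; samples quenched in ACN/MeOH at 0, 5, 10, 15, 20 and 30 min. Parent remaining by LC-MS/MS relative to 0 min; T½ = ln(2)/k, CLint = k*1000/0.25 (μL/min/mg).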

[3] = Parallel artificial membrane permeability assay (PAMPA); type: in vitro ADME; design: PAMPA: unit: 1e-6 cm/s; conditions: for Papp at 5 h, 1 µM: PAMPA; for PAMPA: Table S5, unit not given
Method: The permeability of the compounds was assessed using the PAMPA method ([Yu et al., 2015]). The test compounds were dissolved in DMSO to a concentration of 5 mM. Next, the compounds were diluted in a stock plate in saline phosphate buffer (PBS), pH 6.5, containing 1% DMSO to a concentration of 1 µM. Then, 300 µl of each test compound was added to the donor plate. Afterward, 200 µl of PBS buffer, pH 7.4, was added to the acceptor plate. The donor plate was attached to the acceptor plate. The assembled acceptor-donor plate was then incubated at 37°C for 5 h under gentle agitation. To analyze the concentration of the compounds by mass spectrometry, two analysis plates (one for the donor and another for the acceptor plate) containing 300 μl of MEOH:ACN 50:50 were prepared. To the donor analysis plate, 90 µl of PBS, pH 6.5, and 10 µl of the content of the donor plate were added. For the acceptor analysis plate, 100 µl of the content of the acceptor plate was added. To monitor any potential decomposition/intrinsic instability of the test compounds in solution, samples from the stock plate were subjected to LC-MS/MS. The compounds that presented Pe ≥ 1.5 × 10^−6 cm/s were classified as permeable, while compounds that presented Pe < 1.5 × 10^−6 cm/s were considered poorly permeable or nonpermeable.

[4] = Table 6, plasma clearance corrected for the fraction unbound, IV
[5] = mouse, 0.5 mg/kg, Table 6, male CD1 mice
[6] = mouse, Table 6, IV 0.5 mg/kg, male CD1 mice
[7] = mouse, Table 6, IV 0.5 mg/kg, male CD1 mice, read-out: AUC (ng*h/ml) IV
[8] = mouse, Table 6, IV 0.5 mg/kg, male CD1 mice, read-out: T1/2 (h) IV (converted)
[9] = mouse, Table 6, IV 0.5 mg/kg, male CD1 mice, read-out: V SS (L/kg) IV
[10] = mouse, Table 6, PO 0.5 mg/kg, male CD1 mice
[11] = mouse, Table 6, PO 0.5 mg/kg, male CD1 mice, read-out: AUC (ng*h/ml) PO
[12] = Table 5, CLint/fu, read-out: CLint_u (L/h/kg) mouse (converted)
[13] = Table 5, read-out: CLint (L/h/kg) mouse (converted)
[14] = mouse, Table 6, PO 0.5 mg/kg, male CD1 mice, read-out: T1/2 (h) PO (converted)
[15] = Table S6, plasma clearance corrected for the fraction unbound
[16] = male, CD1, mouse, 0.5 mg/kg, Table S6, IV, mice
[17] = male, CD1, mouse, 0.5 mg/kg, Table S6, IV, mice, read-out: AUC (ng*h/mL) IV
[18] = male, CD1, mouse, 0.5 mg/kg, Table S6, IV, mice, read-out: T1/2(h) IV (converted)
[19] = male, CD1, mouse, 0.5 mg/kg, Table S6, IV, mice, read-out: VSS (L/kg) IV
[20] = male, CD1, mouse, 0.5 mg/kg, Table S6, PO, mice
[21] = male, CD1, mouse, 0.5 mg/kg, Table S6, PO, mice, read-out: AUC (ng*h/mL) PO
[22] = male, CD1, mouse, 0.5 mg/kg, Table S6, PO, mice, read-out: T1/2 (h) PO (converted)
[23] = male, CD1, mouse, 0.5 mg/kg, Table S6, mice
[24] = Table S5, CLint/fu, read-out: CLint_u (L/h/kg) Mouse (converted)
[25] = Table S5, read-out: CLint (L/h/kg) Mouse (converted)
[26] = Table 3, donor pH 6.5, acceptor pH 7.4, 5 h

Row | Structure (SMILES) | CLpu [1, 4] [mL/min/kg] | bioavailability [1, 5] [%] | C0 [1, 6] [ng/mL] | AUC [1, 7] [ng·h/mL] | half-life [1, 8] [h] | Vd [1, 9] [L/kg] | Tmax [1, 10] [min] | AUC [1, 11] [ng·h/mL] | clearance [1, 6] [L/h/kg] | CLint scaled at 5 µM [2, 12] [L/h/kg] | CLint scaled at 5 µM [2, 13] [L/h/kg] | Papp at 5 h, 1 µM ([3]; Table 5) [×10⁻⁶ cm/s] | Cmax [1, 10] [ng/mL] | CLpu [1, 15] [mL/min/kg] | clearance [1, 16] [L/h/kg] | C0 [1, 16] [ng/mL] | AUC [1, 17] [ng·h/mL] | half-life [1, 18] [h] | Vd [1, 19] [L/kg] | bioavailability [1, 23] [%] | other results
1 | O=C(COc1ccccc1[N+](=O)[O-])NCCc1nc2ccccc2[nH]1 [Compound 32] | 2623 | 1.9 | 220 | 53 | 0.2 | 2.5 | 18 | 1 | 5.9 | 808 | 526 | 4.9 | – | – | – | – | – | – | – | – | –
2 | O=C(COc1ccc2ccccc2c1Br)NCCc1nc2ccccc2[nH]1 [Compound 34] | – | 5.6 | 255 | 116 | 0.3 | 1.9 | 18 | 6.5 | 7.6 | – | 607 | 0.3 | 7.6 | – | – | – | – | – | – | – | CLpu (L/h/kg) [1, 4]: 2,874.7 L/h/kg; half-life [1, 14]: 0.6 h
3 | Cc1ccccc1OCC(=O)NCCc1nc2ccccc2o1 [Compound 37] | 3118 | – | 169 | 53 | 0.2 | 2.4 | 18 | – | 9.5 | 874 | 745 | 19.7 | 14.6 | – | – | – | – | – | – | – | –
4 | O=C(COc1ccccc1Br)NCCc1nc2ccccc2[nH]1 [Compound 18] | 1728 | 1.2 | 283 | 84 | 0.2 | 1.8 | 18 | 1 | 3.2 | 334 | 191 | 5.6 | – | – | – | – | – | – | – | – | –
5 | O=C(COc1cccc([N+](=O)[O-])c1)NCCc1nc2ccccc2[nH]1 [Compound 8] | – | – | – | – | – | – | – | – | – | – | – | – | – | 396.2 | 3.31 | 925 | 322 | 0.21 | 1.04 | 14 | Cmax [1, 20]: 61 ng/mL; Tmax [1, 20]: 18.6 min; AUC [1, 21]: 44.6 ng·h/mL; half-life [1, 22]: 0.42 h; CLint scaled at 5 µM [2, 24]: 67.5 L/h/kg; CLint scaled at 5 µM [2, 25]: 67.5 L/h/kg; Papp at 5 h, 1 µM [3, 26]: 2.17 ×10⁻⁶ cm/s; PAMPA [3]: 2.17
6 | O=C(COc1ccccc1)NCCc1nc2ccccc2[nH]1 [Compound 1] | – | – | – | – | – | – | – | – | – | – | – | – | – | 289.8 | 4.01 | 988 | 250 | 0.21 | 1.02 | 9 | Cmax [1, 20]: 21 ng/mL; Tmax [1, 20]: 19.2 min; AUC [1, 21]: 22.5 ng·h/mL; half-life [1, 22]: 0.73 h; CLint scaled at 5 µM [2, 24]: 72.1 L/h/kg; CLint scaled at 5 µM [2, 25]: 72.1 L/h/kg; Papp at 5 h, 1 µM [3, 26]: 4.21 ×10⁻⁶ cm/s; PAMPA [3]: 4.21
7 | Cc1ccccc1OCC(=O)NCCc1nc2ccccc2[nH]1 [Compound 17] | 1738 | 0 | 153 | 83 | 0.5 | 4.4 | – | – | 6.3 | 392 | 300 | 5.9 | – | – | – | – | – | – | – | – | –
8 | N#Cc1ccccc1OCC(=O)NCCc1nc2ccccc2[nH]1 [Compound 31] | 498 | – | 232 | 67 | 0.2 | 1.9 | 18 | – | 4.6 | 87.9 | 74.6 | 2.2 | 12.8 | – | – | – | – | – | – | – | –
9 | O=C(COc1ccc2cc(O)ccc2c1)NCCc1nc2ccccc2[nH]1 [Compound 10] | – | – | – | – | – | – | – | – | – | – | – | – | – | 314 | 6.52 | 660 | 156 | 0.14 | 1.21 | 0 | CLint scaled at 5 µM [2, 24]: 32.3 L/h/kg; CLint scaled at 5 µM [2, 25]: 26.4 L/h/kg; Papp at 5 h, 1 µM [3, 26]: 0.21 ×10⁻⁶ cm/s; PAMPA [3]: 0.21
10 | CC(=O)Nc1cccc(OCC(=O)NCCc2nc3ccccc3[nH]2)c1 [Compound 3] | – | – | – | – | – | – | – | – | – | – | – | – | – | 242.5 | 2.31 | 12000 | 916 | 0.35 | 0.45 | 1 | Cmax [1, 20]: 9 ng/mL; Tmax [1, 20]: 26.4 min; AUC [1, 21]: 9.91 ng·h/mL; CLint scaled at 5 µM [2, 24]: 10.6 L/h/kg; CLint scaled at 5 µM [2, 25]: 10.6 L/h/kg; Papp at 5 h, 1 µM [3, 26]: 0.17 ×10⁻⁶ cm/s; PAMPA [3]: 0.17
11 | O=C(COc1ccc(Br)cc1)NCCc1nc2ccccc2[nH]1 [Compound 33] | 1010 | 35.2 | 658 | 160 | 0.2 | 0.6 | 18 | 56.5 | 9.5 | 193 | 161 | 0.7 | 71.7 | – | – | – | – | – | – | – | half-life [1, 14]: 0.4 h
12 | O=C(COc1ccc2ccccc2c1)NCCc1nc2ccccc2[nH]1 [Compound 35] | 5577 | 2 | 228 | 86 | 0.2 | 2 | 18 | 1.7 | 5.8 | 1170 | 565 | 0.7 | 3.7 | – | – | – | – | – | – | – | half-life [1, 14]: 0.2 h
